{
  "source": "ChEMBL document CHEMBL1255495",
  "about": "“Experimental conditions that enhance potency of an antibacterial oligo-acyl-lysyl” (2010)",
  "key": {"[1]": {"system": "Listeria monocytogenes", "experiment": "Antibacterial activity against Listeria monocytogenes ATCC 19115 after 24 hrs at 25 degC by microdilution method", "assay_type": "functional", "details": "ATCC 19115, 24 h"}, "[2]": {"system": "Listeria monocytogenes", "experiment": "Antibacterial activity against Listeria monocytogenes ATCC 19115 assessed as reduction in bacterial population at 0.01 to 10 uM up to 15 mins by time-kill assay", "assay_type": "functional"}, "[3]": {"system": "Escherichia coli", "experiment": "Antibacterial activity against Escherichia coli O157:H7 ATCC 43894 after 24 hrs at 25 degC by microdilution method", "assay_type": "functional", "details": "O157:H7 ATCC 43894, 24 h"}, "[4]": {"system": "Staphylococcus aureus", "experiment": "Antibacterial activity against methicillin-resistant Staphylococcus aureus isolate 15903 after 24 hrs at 37 degC by microdilution method", "assay_type": "functional", "details": "isolate 15903, 24 h"}, "[5]": {"system": "Escherichia coli", "experiment": "Antibacterial activity against Escherichia coli O157:H7 ATCC 43894 at pH 5.5 after 24 hrs by microdilution method", "assay_type": "functional", "details": "O157:H7 ATCC 43894, 24 h"}, "[6]": {"system": "Escherichia coli", "experiment": "Antibacterial activity against Escherichia coli O157:H7 ATCC 43894 at pH 8.5 after 24 hrs by microdilution method", "assay_type": "functional", "details": "O157:H7 ATCC 43894, 24 h"}, "[7]": {"system": "Listeria monocytogenes", "experiment": "Antibacterial activity against Listeria monocytogenes ATCC 19115 after 24 hrs by microdilution method in presence of 40 mM MgCl2", "assay_type": "functional", "details": "ATCC 19115, 24 h"}, "[8]": {"system": "Escherichia coli", "experiment": "Antibacterial activity against Escherichia coli O157:H7 ATCC 43894 after 24 hrs at 37 degC by microdilution method", "assay_type": "functional", "details": "O157:H7 ATCC 43894, 24 h"}, "[9]": {"system": "Listeria monocytogenes", "experiment": "Antibacterial activity against Listeria monocytogenes ATCC 19115 at pH 7 after 24 hrs by microdilution method", "assay_type": "functional", "details": "ATCC 19115, 24 h"}, "[10]": {"system": "Listeria monocytogenes", "experiment": "Antibacterial activity against Listeria monocytogenes ATCC 19115 after 72 hrs at 4 degC by microdilution method", "assay_type": "functional", "details": "ATCC 19115, 72 h"}, "[11]": {"system": "Listeria monocytogenes", "experiment": "Antibacterial against Listeria monocytogenes ATCC 19115 at pH 8.5 after 24 hrs at 48 degC by microdilution method in presence of 85 mM NaCl", "assay_type": "functional", "details": "ATCC 19115, 24 h"}, "[12]": {"system": "Staphylococcus aureus", "experiment": "Antibacterial activity against methicillin-resistant Staphylococcus aureus isolate 15903 at pH 8.5 after 24 hrs by microdilution method", "assay_type": "functional", "details": "isolate 15903, 24 h"}, "[13]": {"system": "Listeria monocytogenes", "experiment": "Antibacterial activity against Listeria monocytogenes ATCC 19115 after 24 hrs by microdilution method in presence of 1030 mM NaCl", "assay_type": "functional", "details": "ATCC 19115, 24 h"}, "[14]": {"system": "Listeria monocytogenes", "experiment": "Antibacterial activity against Listeria monocytogenes ATCC 19115 after 24 hrs by microdilution method in presence of 85 mM NaCl", "assay_type": "functional", "details": "ATCC 19115, 24 h"}, "[15]": {"system": "Listeria monocytogenes", "experiment": "Antibacterial activity against Listeria monocytogenes ATCC 19115 at pH 8.5 after 24 hrs by microdilution method", "assay_type": "functional", "details": "ATCC 19115, 24 h"}, "[16]": {"system": "Escherichia coli", "experiment": "Antibacterial activity against Escherichia coli O157:H7 ATCC 43894 at pH 3.5 after 24 hrs by microdilution method", "assay_type": "functional", "details": "O157:H7 ATCC 43894, 24 h"}, "[17]": {"system": "Staphylococcus aureus", "experiment": "Antibacterial activity against methicillin-resistant Staphylococcus aureus isolate 15903 assessed as reduction in bacterial population at 0.01 to 10 uM up to 15 mins by time-kill assay", "assay_type": "functional"}, "[18]": {"system": "Escherichia coli", "experiment": "Antibacterial activity against Escherichia coli O157:H7 ATCC 43894 after 24 hrs by microdilution method in presence of 40 mM MgCl2", "assay_type": "functional", "details": "O157:H7 ATCC 43894, 24 h"}, "[19]": {"system": "Lipid bilayer", "experiment": "Binding affinity to phospholipid membrane model at pH 7 by surface plasmon resonance in presence of 140 mM NaCl"}, "[20]": {"system": "Escherichia coli", "experiment": "Antibacterial activity against Escherichia coli O157:H7 ATCC 43894 after 24 hrs by microdilution method in presence of 260 mM NaCl", "assay_type": "functional", "details": "O157:H7 ATCC 43894, 24 h"}, "[21]": {"system": "Escherichia coli", "experiment": "Antibacterial activity against Escherichia coli O157:H7 ATCC 43894 after 24 hrs at 48 degC by microdilution method", "assay_type": "functional", "details": "O157:H7 ATCC 43894, 24 h"}, "[22]": {"system": "Listeria monocytogenes", "experiment": "Ratio of MIC for Listeria monocytogenes ATCC 19115 in presence of 85 mM NaCl to MIC for Listeria monocytogenes ATCC 19115 at pH 8.5 after 24 hrs at 48 degC in presence of 85 mM NaCl", "assay_type": "functional"}, "[23]": {"system": "Listeria monocytogenes", "experiment": "Antibacterial activity against Listeria monocytogenes ATCC 19115 after 24 hrs at 37 degC by microdilution method", "assay_type": "functional", "details": "ATCC 19115, 24 h"}, "[24]": {"system": "Listeria monocytogenes", "experiment": "Antibacterial activity against Listeria monocytogenes ATCC 19115 after 24 hrs at 48 degC by microdilution method", "assay_type": "functional", "details": "ATCC 19115, 24 h"}, "[25]": {"system": "Staphylococcus aureus", "experiment": "Antibacterial against methicillin-resistant Staphylococcus aureus isolate 15903 at pH 8.5 after 24 hrs at 48 degC by microdilution method in presence of 85 mM NaCl", "assay_type": "functional", "details": "isolate 15903, 24 h"}, "[26]": {"system": "Staphylococcus aureus", "experiment": "Antibacterial activity against Staphylococcus aureus ATCC 29213 at pH 7 after 24 hrs by microdilution method", "assay_type": "functional", "details": "ATCC 29213, 24 h"}, "[27]": {"system": "Escherichia coli", "experiment": "Antibacterial activity against Escherichia coli O157:H7 ATCC 43894 after 24 hrs by microdilution method in presence of 85 mM NaCl", "assay_type": "functional", "details": "O157:H7 ATCC 43894, 24 h"}, "[28]": {"system": "Escherichia coli", "experiment": "Ratio of MIC for Escherichia coli O157:H7 ATCC 43894 in presence of 85 mM NaClsto MIC for Escherichia coli O157:H7 ATCC 43894 at pH 8.5 after 24 hrs at 48 degC in presence of 85 mM NaCl", "assay_type": "functional"}, "[29]": {"system": "Staphylococcus aureus", "experiment": "Antibacterial activity against methicillin-resistant Staphylococcus aureus isolate 15903 after 24 hrs by microdilution method in presence of 85 mM NaCl", "assay_type": "functional", "details": "isolate 15903, 24 h"}},
  "note": "Calls of active or inactive are those of the source. The calls are words filed in the database; no cut-off is given here.",
  "data": [
    {"smiles": "CCCCCCCCCCCC(=O)N[C@@H](CCCCN)C(=O)NCCCCCCCC(=O)N[C@@H](CCCCN)C(=O)NCCCCCCCC(=O)N[C@@H](CCCCN)C(=O)NCCCCCCCC(=O)N[C@@H](CCCCN)C(=O)NCCCCCCCC(=O)N[C@@H](CCCCN)C(=O)NCCCCCCCC(=O)N[C@@H](CCCCN)C(=O)NCCCCCCCC(=O)N[C@@H](CCCCN)C(=O)NCCCCCCCC(=O)N[C@@H](CCCCN)C(N)=O", "values": [
      {"measurement": "MIC", "setting": "[1]", "value": 3.1, "unit": "µM"},
      {"measurement": "inhibition (INH)", "setting": "[2]", "value": 99, "unit": "%"},
      {"measurement": "MIC", "setting": "[3]", "value": 3.1, "unit": "µM"},
      {"measurement": "MIC", "setting": "[4]", "value": 12.5, "unit": "µM"},
      {"measurement": "MIC", "setting": "[5]", "value": 3.1, "unit": "µM"},
      {"measurement": "MIC", "setting": "[6]", "value": 1.6, "unit": "µM"},
      {"measurement": "MIC", "setting": "[7]", "value": 6.3, "unit": "µM"},
      {"measurement": "MIC", "setting": "[8]", "value": 3.1, "unit": "µM"},
      {"measurement": "MIC", "setting": "[9]", "value": 1.6, "unit": "µM"},
      {"measurement": "MIC", "setting": "[10]", "value": 3.1, "unit": "µM"},
      {"measurement": "MIC", "setting": "[11]", "value": 0.05, "unit": "µM"},
      {"measurement": "MIC", "setting": "[12]", "value": 1.6, "unit": "µM"},
      {"measurement": "MIC", "setting": "[13]", "value": 12.5, "unit": "µM"},
      {"measurement": "MIC", "setting": "[14]", "value": 1.6, "unit": "µM"},
      {"measurement": "MIC", "setting": "[15]", "value": 0.8, "unit": "µM"},
      {"measurement": "MIC", "setting": "[16]", "value": "> 50", "unit": "µM"},
      {"measurement": "inhibition (INH)", "setting": "[17]", "value": 99, "unit": "%"},
      {"measurement": "MIC", "setting": "[18]", "value": 6.3, "unit": "µM"},
      {"measurement": "Activity", "setting": "[19]", "value": "inactive"},
      {"measurement": "MIC", "setting": "[20]", "value": 6.3, "unit": "µM"},
      {"measurement": "MIC", "setting": "[21]", "value": 1.6, "unit": "µM"},
      {"measurement": "Ratio", "setting": "[22]", "value": 32},
      {"measurement": "MIC", "setting": "[23]", "value": 1.6, "unit": "µM"},
      {"measurement": "MIC", "setting": "[24]", "value": 1.6, "unit": "µM"},
      {"measurement": "MIC", "setting": "[25]", "value": 0.8, "unit": "µM"},
      {"measurement": "MIC", "setting": "[26]", "value": 50, "unit": "µM"},
      {"measurement": "MIC", "setting": "[27]", "value": 3.1, "unit": "µM"},
      {"measurement": "Ratio", "setting": "[28]", "value": 16},
      {"measurement": "MIC", "setting": "[29]", "value": 12.5, "unit": "µM"}
    ]}
  ]
}
